Common to all, as to experiment: HotSpot kinase profiling
Holding throughout (type): biochemical

One assay has as its target T1, PKCiota (Homo sapiens, UniProt P41743).
T1 construct: purchased Reaction Biology Corp
T1 sequence (P41743 1-596): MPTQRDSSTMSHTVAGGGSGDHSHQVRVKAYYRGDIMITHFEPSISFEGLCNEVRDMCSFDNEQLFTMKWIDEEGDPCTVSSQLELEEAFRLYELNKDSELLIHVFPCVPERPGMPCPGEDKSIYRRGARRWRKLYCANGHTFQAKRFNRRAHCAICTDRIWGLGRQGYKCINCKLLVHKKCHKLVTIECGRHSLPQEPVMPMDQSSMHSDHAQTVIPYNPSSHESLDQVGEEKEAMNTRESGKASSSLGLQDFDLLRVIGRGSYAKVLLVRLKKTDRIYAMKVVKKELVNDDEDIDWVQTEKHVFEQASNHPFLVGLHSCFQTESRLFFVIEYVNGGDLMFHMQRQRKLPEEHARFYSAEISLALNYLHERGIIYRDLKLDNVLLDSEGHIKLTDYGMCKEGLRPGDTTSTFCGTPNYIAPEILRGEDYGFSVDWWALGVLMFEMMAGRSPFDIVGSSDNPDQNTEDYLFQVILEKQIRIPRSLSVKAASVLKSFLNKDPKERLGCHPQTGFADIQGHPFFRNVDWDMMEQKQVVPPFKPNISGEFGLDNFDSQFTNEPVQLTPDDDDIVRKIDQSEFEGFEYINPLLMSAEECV
The method in brief:
(§1)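 Activity is measured by radiolabel transfer captured on P81 filters after a 2 h room-temperature reaction of kinase, substrate and cofactors. Values are percent inhibition against DMSO.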

The target of another assay is T2, NEK9 (Homo sapiens, UniProt Q8TD19).
T2 construct: purchased Reaction Biology Corp
T2 sequence (Q8TD19 1-979): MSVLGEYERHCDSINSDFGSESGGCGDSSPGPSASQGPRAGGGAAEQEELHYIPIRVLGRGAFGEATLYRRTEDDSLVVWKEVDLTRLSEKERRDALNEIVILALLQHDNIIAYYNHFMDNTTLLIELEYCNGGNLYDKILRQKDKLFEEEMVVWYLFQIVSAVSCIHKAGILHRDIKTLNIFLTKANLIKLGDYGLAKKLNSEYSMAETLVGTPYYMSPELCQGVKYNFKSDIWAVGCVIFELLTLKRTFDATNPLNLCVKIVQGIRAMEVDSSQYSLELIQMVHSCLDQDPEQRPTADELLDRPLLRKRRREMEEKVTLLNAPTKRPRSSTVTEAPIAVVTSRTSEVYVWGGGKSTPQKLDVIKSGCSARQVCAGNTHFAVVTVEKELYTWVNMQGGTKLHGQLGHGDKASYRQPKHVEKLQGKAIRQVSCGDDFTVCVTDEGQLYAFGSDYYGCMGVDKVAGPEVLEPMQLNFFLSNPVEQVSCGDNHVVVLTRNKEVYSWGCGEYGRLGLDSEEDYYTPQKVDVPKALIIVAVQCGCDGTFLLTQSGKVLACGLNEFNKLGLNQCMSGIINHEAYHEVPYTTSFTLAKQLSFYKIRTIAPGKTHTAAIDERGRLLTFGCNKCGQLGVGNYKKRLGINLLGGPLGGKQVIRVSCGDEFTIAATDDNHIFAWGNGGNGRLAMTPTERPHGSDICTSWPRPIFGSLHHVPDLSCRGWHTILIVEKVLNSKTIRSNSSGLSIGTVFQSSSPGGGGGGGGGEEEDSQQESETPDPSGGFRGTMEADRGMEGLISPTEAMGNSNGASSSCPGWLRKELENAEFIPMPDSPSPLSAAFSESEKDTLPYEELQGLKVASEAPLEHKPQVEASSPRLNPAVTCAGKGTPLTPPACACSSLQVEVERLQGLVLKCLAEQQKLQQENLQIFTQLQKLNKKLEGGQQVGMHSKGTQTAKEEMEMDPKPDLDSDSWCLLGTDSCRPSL
The method in brief:
as §1

The target in a further assay is T3, PKN1/PRK1 (Homo sapiens, UniProt Q16512).
T3 construct: purchased Reaction Biology Corp
The method in brief: as §1

The next assay deals with T4, NLK (Homo sapiens, UniProt Q9UBE8).
T4 construct: purchased Reaction Biology Corp
T4 sequence (Q9UBE8 1-527): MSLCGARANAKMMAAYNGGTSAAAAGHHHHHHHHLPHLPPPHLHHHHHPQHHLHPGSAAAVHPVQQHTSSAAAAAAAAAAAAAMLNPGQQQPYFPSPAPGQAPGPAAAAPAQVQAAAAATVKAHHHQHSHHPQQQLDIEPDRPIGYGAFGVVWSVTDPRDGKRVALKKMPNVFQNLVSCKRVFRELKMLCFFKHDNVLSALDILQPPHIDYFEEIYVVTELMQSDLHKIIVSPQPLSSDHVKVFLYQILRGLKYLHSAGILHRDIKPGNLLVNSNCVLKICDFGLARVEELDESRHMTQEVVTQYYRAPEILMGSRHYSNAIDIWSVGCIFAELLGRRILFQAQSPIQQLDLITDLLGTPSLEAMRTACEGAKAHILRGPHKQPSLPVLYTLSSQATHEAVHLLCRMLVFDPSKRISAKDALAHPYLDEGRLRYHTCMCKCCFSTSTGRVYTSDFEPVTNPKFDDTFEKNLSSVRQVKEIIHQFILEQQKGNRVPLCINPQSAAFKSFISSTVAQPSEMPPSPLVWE
The method in brief: as §1

In the next assay the target is T5, CDK16/cyclin Y (Homo sapiens, UniProt Q00536).
T5 construct: purchased Reaction Biology Corp
The method in brief: as §1

[1] abbreviates: read-out: % Enzyme Activity (relative to DMSO controls) Run 1.
Setting [2] is: read-out: % Enzyme Activity (relative to DMSO controls) Run 2.

Where two headings read alike, the source gives them in different places.

For orientation: inhibition means the drop in the measured response relative to a control, in per cent.

T5 sequence (Q00536 whole entry): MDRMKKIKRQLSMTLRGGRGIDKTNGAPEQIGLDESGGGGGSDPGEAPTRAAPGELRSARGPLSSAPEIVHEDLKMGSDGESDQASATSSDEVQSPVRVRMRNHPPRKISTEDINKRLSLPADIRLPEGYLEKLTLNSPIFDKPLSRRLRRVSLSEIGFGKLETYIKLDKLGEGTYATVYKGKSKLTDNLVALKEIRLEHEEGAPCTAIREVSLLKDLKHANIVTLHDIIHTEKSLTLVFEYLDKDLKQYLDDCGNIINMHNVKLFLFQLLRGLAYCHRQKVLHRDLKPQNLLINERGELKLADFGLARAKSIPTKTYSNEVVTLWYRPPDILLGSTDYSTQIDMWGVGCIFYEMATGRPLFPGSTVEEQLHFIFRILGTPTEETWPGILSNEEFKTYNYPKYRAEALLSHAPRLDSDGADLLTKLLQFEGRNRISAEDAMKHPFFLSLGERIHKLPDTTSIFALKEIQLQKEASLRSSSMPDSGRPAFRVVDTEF
T5 sequence (Q8ND76 whole entry partner): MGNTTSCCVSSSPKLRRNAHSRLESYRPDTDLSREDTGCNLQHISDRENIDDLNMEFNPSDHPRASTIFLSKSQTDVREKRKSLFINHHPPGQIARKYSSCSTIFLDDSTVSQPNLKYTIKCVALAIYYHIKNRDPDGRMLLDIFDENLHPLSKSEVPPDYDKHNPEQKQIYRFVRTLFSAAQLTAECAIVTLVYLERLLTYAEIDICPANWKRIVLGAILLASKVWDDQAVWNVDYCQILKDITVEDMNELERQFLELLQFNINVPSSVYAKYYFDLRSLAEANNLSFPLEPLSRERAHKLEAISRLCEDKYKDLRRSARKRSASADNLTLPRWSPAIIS
T3 sequence (Q16512 whole entry): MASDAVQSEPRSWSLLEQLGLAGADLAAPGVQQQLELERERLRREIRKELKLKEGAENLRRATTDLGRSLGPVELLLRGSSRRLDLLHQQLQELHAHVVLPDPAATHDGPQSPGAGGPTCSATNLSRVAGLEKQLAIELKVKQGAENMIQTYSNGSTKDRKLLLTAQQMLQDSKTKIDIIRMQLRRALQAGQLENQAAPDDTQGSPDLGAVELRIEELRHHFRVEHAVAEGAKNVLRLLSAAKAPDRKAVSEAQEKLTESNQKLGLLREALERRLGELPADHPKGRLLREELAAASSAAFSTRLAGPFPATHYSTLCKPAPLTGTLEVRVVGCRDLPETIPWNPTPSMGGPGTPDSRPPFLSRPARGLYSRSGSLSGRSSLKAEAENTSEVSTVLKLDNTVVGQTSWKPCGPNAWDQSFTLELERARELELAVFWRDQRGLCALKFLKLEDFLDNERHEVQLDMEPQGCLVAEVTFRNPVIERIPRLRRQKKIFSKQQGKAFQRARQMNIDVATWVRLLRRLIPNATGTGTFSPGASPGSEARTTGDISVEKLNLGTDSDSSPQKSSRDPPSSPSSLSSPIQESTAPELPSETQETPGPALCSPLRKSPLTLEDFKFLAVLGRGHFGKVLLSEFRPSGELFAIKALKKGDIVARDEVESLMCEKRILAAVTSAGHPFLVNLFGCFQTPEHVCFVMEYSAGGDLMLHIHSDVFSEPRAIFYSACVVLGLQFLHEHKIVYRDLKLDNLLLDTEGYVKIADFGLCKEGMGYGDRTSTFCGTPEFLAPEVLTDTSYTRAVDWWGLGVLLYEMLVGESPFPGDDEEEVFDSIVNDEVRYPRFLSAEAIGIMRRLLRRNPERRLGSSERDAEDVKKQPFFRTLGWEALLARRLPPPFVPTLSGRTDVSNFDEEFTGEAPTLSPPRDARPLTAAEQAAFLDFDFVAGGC

On to `C=CC(=O)Nc1cccc(Nc2nc(Nc3ccc(OCCOC)c(F)c3)ncc2F)c1` [Compound 2], for which the inhibition at 3 µM was -5.47% on PKCiota; 15.9% at NEK9; 6.94% on PKN1/PRK1; -1.29% on NLK; -3.73% on CDK16/cyclin Y. Further, the remaining activity at 3 µM at PKCiota (setting [1]) worked out at 105%; at PKCiota (setting [2]) it was 106%; on NEK9 (setting [1]), 83.8%; at NEK9 (setting [2]), 84.3%; on PKN1/PRK1 (setting [1]), 93.8%; at PKN1/PRK1 (setting [2]), 92.3%. The remaining activity at 3 µM on NLK (setting [1]) worked out at 99.6%; on NLK (setting [2]) it was 103%; at CDK16/cyclin Y (setting [1]), 104%; on CDK16/cyclin Y (setting [2]) it was 103%.
